Assay results reported in publication PMC11434026, “Development and Validation of an LC-MS/MS Assay for the Quantitation of MO-OH-Nap Tropolone in Mouse Plasma: Application to In Vitro and In Vivo Pharmacokinetic Studies” (Molecules, 2024).
Several values for one entry are separate records, joined by “and”; a condition that tells them apart may be missing. Equal values may be shown once. Read-outs that look alike come from different tables or passages of the source.

Tests used:
[1] = Thermodynamic aqueous solubility in PBS; format: physicochemical
Procedure: After completion of incubation, the microcentrifuge tube was centrifuged at 10,000× g for 10 min. The supernatant (100 μL) was mixed with an equal volume of ACN and centrifuged again at 10,000× g for 10 min. The supernatant was further diluted 80× times with mobile phase and transferred to autosampler vials and analyzed by LC-MS/MS.

[2] = In vitro metabolic stability in human liver microsomes; format: in vitro ADME; conditions: HLM
Procedure: (§1) Metabolic stability was assessed using mouse, rat, and human liver microsomes (XenoTech, LLC, Lenexa, KS, USA) for phase I metabolism. Briefly, A reaction solution was prepared by mixing […] of PBS (100 mM, pH 7.4), 25 µL of microsomal protein (20 mg/mL), MgCl2 (5 µL; 10 mM), and 50 µL of NADPH (2 mM). The final volume (0.5 mL) was pre-incubated for 10 min in a 37 °C water bath at 60 rpm. An aliquot of MO-OH-Nap (2 µL from 1 µg/mL stock) was spiked into the above solution to initiate the reaction. Aliquots of (50 µL) were collected at time intervals (0, 5, 15, 20, 30, 45, and 60 min) and quenched with 300 µL of ACN, […]. Afterwards, 10 µL of IS stock (1.0 µg/mL) was spiked in each sample then vortexed (5 min) and centrifuged at 10,800 rpm (13,000× g) for 15 min. Samples were vortexed and centrifuged at 10,800 rpm (13,000× g) for 15 min, the supernatant was collected and transferred to an HPLC vial and 10 µL were injected into the LC-MS/MS system. Testosterone and diclofenac were used as positive and negative controls to ensure that liver microsomes and incubation conditions were appropriate for conducting metabolism studies.

[3] = Tissue distribution after single IP dose in CD-1 mice; format: in vivo, mouse; conditions: for concentration at 2 h: female, CD-1, mouse, 2 h after single IP 5 mg/kg
Procedure: MO-OH-Nap was dissolved in a 5% DMSO, 45% w/v hydroxypropyl-β-cyclodextrin solution in PBS (final concentration 0.625 mg/mL MO-OH-Nap). MO-OH-Nap (5 mg/kg) was administered IP. After dosing, approximately 100 µL of blood was collected in Lithium-Heparin-Microvette 300 µL Capillary Blood Collection Tube (SARSTEDT AG& Co., Nümbrecht, Germany) from the maxillary vein at 5, 15, 30 min and 1, 2, 4, 6, 8, 24, and 48 h. Two blood time points were collected from every mouse and the third time point was the terminal time point, for a total of three time points from each mouse (5 mice/group/per time point). Blood was centrifuged at 4000× g at 4 °C for 10 min to extract plasma. The collected plasma samples were stored at −80 °C until analysis. The specified tissues including liver, lungs, kidney, spleen, heart, and brain were collected at terminal times of 2, 8, 24 and 48 h after dosing. Tissue samples were rinsed with PBS to remove excess blood and blotted with filter paper. After weighing, each tissue sample was individually homogenized with de-ionized water using a TissueLyser II (Qiagen Science, Louisville, KY, USA). A dilution factor of five was used for liver, spleen, brain, lungs, and kidney while the heart was homogenized at a 6-fold dilution factor. All tissues were stored at −80 °C until analysis. Plasma concentrations (ng/mL) and tissue concentrations (ng/g) were determined for each time point collected using LC-MS/MS analysis.

[4] = Blood to plasma ratio (B/P) in fresh mouse blood; format: in vitro ADME; conditions: 1 µM, 37 °C
Procedure: Fresh mouse blood (800 µL) was incubated in a water bath maintained at 37 °C for 10 min prior to drug spiking. Blood was spiked with the drug at concentrations of 1 µM to maintain organic content < 1%. Aliquots of 50 µL were collected at different time points (0, 30, and 60 min) for blood analysis as well an additional sample of 120 µL was collected into a micro-centrifuge tube and centrifuged at 4000× g for 10 min at 4 °C to separate 50 µL plasma for analysis. For matrix match and calibration, blank plasma of 50 µL was added to the collected blood aliquot, and 50 µL of blank blood was added to the extract of 50 µL plasma. The whole blood and plasma samples were further processed by PPT as described above. The analyte peak area ratios were used to calculate the (B/P) ratio using Equation (5). (5) (B/P) ratio=Blood Concentration /Plasma Concentration

[5] = In vitro metabolic stability in rat liver microsomes; format: in vitro ADME; conditions: RLM
Procedure: as §1

[6] = Gastrointestinal fluid stability (SGF, SIF, PBS); format: physicochemical; conditions: 37 °C, 1 µg/mL
Procedure: The gastric stability of MO-OH-Nap was determined at different physiological pH conditions using simulated gastric/intestinal fluid (SGF/SIF) or PBS (pH7.4) prepared with USP specifications. Briefly, simulated gastric fluid (SGF), pH 1.2, was prepared by dissolving […] of sodium chloride (NaCl) and 3.2 g of pepsin in 7 mL hydrochloric acid (HCl) and a sufficient amount of water to make 1000 mL. The simulated intestinal fluid (SIF), pH 6.8, was prepared by dissolving 6.805 g of monobasic potassium phosphate in 250 mL of water. Then 77 mL of 0.2 N sodium hydroxide (NaOH) was mixed with 500 mL water and 10 g of pancreatin, then made up to 1000 mL. The SIF solution is adjusted to pH 6.8 ± 0.1 with either 0.2 N NaOH or 0.2 N HCl. MO-OH-Nap at 1 µg/mL concentration was incubated with SGF, SIF and PBS (100 mM pH 7.4) at 37 °C on a shaking water bath, n = 3. Samples (100 µL) were collected at 0, 15, 30, 60, and 120 min. Immediately after sample collection, 300 µL ACN was added as a quenching solvent to stop chemical degradation. IS solution (10 µL from 1 µg/mL stock) was added to each sample, vortexed the centrifuged at 14,000 rpm (22,000× g) and 4 °C, and then transferred to HPLC vial for LC-MS/MS analysis. Stability was determined through the percentage of the parent drug remaining at different time points relative to the parent drug at 0 min (100% parent).

Question: Which results are given for `O=c1c(O)ccccc1-c1ccc2ccccc2c1` [MO-OH-Nap, MO-OH-Nap tropolone]?
Answer: solubility class per USP ([1]; PBS pH 7.4): partially soluble and very slightly soluble; solubility at 24 h ([1]; phosphate buffered saline (PBS), PBS pH 7.4, 24 h): 20.2 µg/mL and 80.1 µM; metabolic depletion ([2]; NADPH, 60 min): < 15%; parent drug remaining ([2]; all time points to 60 min): > 95%; detection in all harvested tissue ([3]; 48 h after single IP 5 mg/kg): detected; concentration at 2 h ([3]; brain, read-out: tissue concentration, brain): 51 ng/g; concentration at 2 h ([3]; heart, read-out: tissue concentration, heart): 115 ng/g; concentration at 2 h ([3]; kidney, read-out: tissue concentration, kidney): 750 ng/g; concentration at 2 h ([3]; liver, read-out: tissue concentration, liver): 1390 ng/g; concentration at 2 h ([3]; lungs, read-out: tissue concentration, lungs): 181 ng/g; concentration at 2 h ([3]; spleen, read-out: tissue concentration, spleen): 745 ng/g; B/P Ratio ([4]; 0 min): 1.1 ± 0.1; B/P Ratio ([4]; 30 min): 0.9 ± 0.2; B/P Ratio ([4]; 60 min): 1.0 ± 0.12; metabolic depletion ([5]; NADPH, 60 min): < 15%; parent drug remaining ([5]; all time points to 60 min): > 95%; drug remaining ([6]; PBS pH 7.4, 120 min): > 80%; drug remaining ([6]; SGF pH 1.2, 120 min): > 80%; drug remaining ([6]; SIF pH 6.8, 120 min): > 80%
